Measured values reported in ChEMBL document CHEMBL1811753, “Discovery of potent and selective inhibitors of human platelet-type 12- lipoxygenase” (J Med Chem, 2011).
Active and inactive are the calls of the source. The rule behind the calls is not given here.

Legend:
[1] = target: T1, Polyunsaturated fatty acid lipoxygenase ALOX12 (Homo sapiens, UniProt P18054); assay: Inhibition of human platelet-type N-terminally His6-tagged 12-lipoxygenase assessed as conjugated diene product formation using arachidonic acid by UV-vis spectrophotometer analysis
T1 sequence (P18054 whole entry): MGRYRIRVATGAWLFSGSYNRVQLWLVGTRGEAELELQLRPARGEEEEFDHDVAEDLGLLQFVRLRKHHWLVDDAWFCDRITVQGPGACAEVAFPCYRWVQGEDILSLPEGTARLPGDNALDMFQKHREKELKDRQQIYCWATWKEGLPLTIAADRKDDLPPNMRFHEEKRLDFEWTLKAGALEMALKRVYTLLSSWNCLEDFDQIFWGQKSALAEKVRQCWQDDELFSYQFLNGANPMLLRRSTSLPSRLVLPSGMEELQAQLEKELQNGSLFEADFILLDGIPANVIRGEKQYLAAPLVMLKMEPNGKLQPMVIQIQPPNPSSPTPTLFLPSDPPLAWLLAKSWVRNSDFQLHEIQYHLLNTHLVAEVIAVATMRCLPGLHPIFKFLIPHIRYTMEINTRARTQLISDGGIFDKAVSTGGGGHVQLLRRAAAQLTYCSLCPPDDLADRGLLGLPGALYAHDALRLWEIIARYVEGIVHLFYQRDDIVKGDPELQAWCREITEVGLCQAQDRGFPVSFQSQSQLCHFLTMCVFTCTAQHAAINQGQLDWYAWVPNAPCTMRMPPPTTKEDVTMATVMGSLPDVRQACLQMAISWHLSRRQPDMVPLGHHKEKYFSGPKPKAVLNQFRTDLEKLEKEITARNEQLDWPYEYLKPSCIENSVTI

[2] = target: T2, Polyunsaturated fatty acid 5-lipoxygenase (Homo sapiens, UniProt P09917); assay: Inhibition of human 5-lipoxygenase assessed as conjugated diene product formation using arachidonic acid by UV-vis spectrophotometer analysis
T2 sequence (P09917 whole entry): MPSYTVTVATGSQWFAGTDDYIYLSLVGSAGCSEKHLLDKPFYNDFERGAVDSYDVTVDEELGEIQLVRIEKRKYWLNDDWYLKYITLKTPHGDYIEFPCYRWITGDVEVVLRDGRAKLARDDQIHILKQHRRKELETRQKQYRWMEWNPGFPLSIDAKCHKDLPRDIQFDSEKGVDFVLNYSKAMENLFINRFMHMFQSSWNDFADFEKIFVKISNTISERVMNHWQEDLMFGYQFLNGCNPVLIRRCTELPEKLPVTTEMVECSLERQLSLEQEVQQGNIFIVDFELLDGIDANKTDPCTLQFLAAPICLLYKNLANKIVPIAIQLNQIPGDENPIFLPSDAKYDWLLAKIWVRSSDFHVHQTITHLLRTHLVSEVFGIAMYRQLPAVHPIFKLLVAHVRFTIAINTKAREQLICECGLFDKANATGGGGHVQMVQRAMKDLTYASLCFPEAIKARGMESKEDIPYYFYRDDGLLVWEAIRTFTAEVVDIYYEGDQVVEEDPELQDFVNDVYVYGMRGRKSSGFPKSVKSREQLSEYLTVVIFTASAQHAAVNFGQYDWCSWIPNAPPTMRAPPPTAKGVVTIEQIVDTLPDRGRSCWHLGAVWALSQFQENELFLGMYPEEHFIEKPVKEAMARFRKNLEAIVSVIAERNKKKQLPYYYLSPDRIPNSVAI

Homo sapiens [3] = organism: Homo sapiens; assay: Selectivity ratio of IC50 for human reticulocyte N-terminally His6-tagged 15-lipoxygenase-1 to IC50 for human platelet-type N-terminally His6-tagged 12-lipoxygenase
Homo sapiens [4] = organism: Homo sapiens; assay: Selectivity ratio of IC50 for human reticulocyte N-terminally His6-tagged 15-lipoxygenase-2 to IC50 for human platelet-type N-terminally His6-tagged 12-lipoxygenase
[5] = target: T3, Polyunsaturated fatty acid lipoxygenase ALOX15B (Homo sapiens, UniProt O15296); assay: Inhibition of human reticulocyte N-terminally His6-tagged 15-lipoxygenase-2 assessed as conjugated diene product formation using arachidonic acid by UV-vis spectrophotometer analysis
T3 sequence (O15296 whole entry): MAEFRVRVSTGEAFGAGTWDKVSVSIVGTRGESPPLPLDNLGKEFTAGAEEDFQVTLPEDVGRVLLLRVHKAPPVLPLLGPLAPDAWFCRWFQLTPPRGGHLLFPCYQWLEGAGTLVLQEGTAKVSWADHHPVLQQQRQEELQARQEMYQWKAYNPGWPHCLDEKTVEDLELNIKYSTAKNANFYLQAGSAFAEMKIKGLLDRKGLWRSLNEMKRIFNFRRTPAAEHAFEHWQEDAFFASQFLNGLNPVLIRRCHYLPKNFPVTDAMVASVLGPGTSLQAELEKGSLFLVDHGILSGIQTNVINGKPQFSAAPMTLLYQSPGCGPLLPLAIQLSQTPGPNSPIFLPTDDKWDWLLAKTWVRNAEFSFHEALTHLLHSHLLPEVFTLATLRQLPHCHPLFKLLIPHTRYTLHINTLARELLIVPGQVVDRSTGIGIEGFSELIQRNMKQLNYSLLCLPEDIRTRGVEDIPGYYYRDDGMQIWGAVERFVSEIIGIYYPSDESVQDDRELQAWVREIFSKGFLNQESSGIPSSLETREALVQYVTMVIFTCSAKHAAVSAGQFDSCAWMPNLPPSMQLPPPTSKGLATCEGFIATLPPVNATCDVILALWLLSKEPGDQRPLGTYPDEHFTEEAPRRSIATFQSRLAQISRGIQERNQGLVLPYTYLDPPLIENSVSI

[6] = target: T4, Polyunsaturated fatty acid lipoxygenase ALOX15 (Homo sapiens, UniProt P16050); assay: Inhibition of human reticulocyte N-terminally His6-tagged 15-lipoxygenase-1 assessed as conjugated diene product formation using arachidonic acid by UV-vis spectrophotometer analysis
T4 sequence (P16050 whole entry): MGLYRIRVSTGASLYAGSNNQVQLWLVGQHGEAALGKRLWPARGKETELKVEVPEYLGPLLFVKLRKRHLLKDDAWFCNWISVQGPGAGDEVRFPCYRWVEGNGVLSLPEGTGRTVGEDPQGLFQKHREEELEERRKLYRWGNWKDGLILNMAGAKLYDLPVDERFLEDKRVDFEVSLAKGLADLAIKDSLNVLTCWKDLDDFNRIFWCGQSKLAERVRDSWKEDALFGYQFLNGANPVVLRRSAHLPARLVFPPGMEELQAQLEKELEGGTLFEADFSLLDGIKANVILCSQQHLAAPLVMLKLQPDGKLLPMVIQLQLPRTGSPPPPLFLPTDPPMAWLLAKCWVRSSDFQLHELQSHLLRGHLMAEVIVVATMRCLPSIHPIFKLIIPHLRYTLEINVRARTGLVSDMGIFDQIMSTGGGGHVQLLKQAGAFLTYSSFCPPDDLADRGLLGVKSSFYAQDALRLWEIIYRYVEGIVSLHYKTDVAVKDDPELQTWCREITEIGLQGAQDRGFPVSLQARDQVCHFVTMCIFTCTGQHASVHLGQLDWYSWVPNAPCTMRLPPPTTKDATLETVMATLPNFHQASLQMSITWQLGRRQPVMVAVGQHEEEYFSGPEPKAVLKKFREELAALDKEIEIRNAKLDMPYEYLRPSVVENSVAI

Homo sapiens [7] = organism: Homo sapiens; assay: Selectivity ratio of IC50 for human 5-lipoxygenase to IC50 for human platelet-type N-terminally His6-tagged 12-lipoxygenase
[8] = target: T1, Polyunsaturated fatty acid lipoxygenase ALOX12; assay: Inhibition of human platelet-type 12-lipoxygenase
[9] = target: T4, Polyunsaturated fatty acid lipoxygenase ALOX15
[10] = target: T5, Polyunsaturated fatty acid lipoxygenase ALOX12 (Homo sapiens) (UniProt P18054); assay: Uncompetitive inhibition of human platelet-type N-terminally His6-tagged 12-lipoxygenase assessed as 12-HPETE formation using arachidonic acid by Michaelis-Menten equation analysis
T5 sequence (whole entry): T1 sequence (P18054 whole entry)

[11] = target: T5, Polyunsaturated fatty acid lipoxygenase ALOX12 (Homo sapiens); assay: Competitive inhibition of human platelet-type N-terminally His6-tagged 12-lipoxygenase assessed as 12-HPETE formation using arachidonic acid by Michaelis-Menten equation analysis
[12] = tested on: Radical scavenging activity; assay: Antioxidant activity assessed as DPPH radical scavenging activity at 5 uM; type: functional
[13] = target: T5, Polyunsaturated fatty acid lipoxygenase ALOX12 (Homo sapiens); settings: 10 uM
[14] = target: T5, Polyunsaturated fatty acid lipoxygenase ALOX12 (Homo sapiens); settings: 10 uM; remark: listed apart in the source
[15] = target: T5, Polyunsaturated fatty acid lipoxygenase ALOX12 (Homo sapiens); settings: 100 uM
[16] = target: T1, Polyunsaturated fatty acid lipoxygenase ALOX12; assay: cell-based

## Cc1ccc(C(=O)NC(c2ccco2)c2cc(Cl)c3cccnc3c2O)cc1 (configuration not stated)
[1]
  IC50: > 25 µM

## CC(=O)NC(C)c1cc(F)c2cccnc2c1O (configuration not stated)
[1]
  IC50: > 75 µM

## CCC(=O)NC(c1ccco1)c1cc(Cl)c2cccnc2c1O (configuration not stated)
[2]
  IC50: > 100 µM
Homo sapiens [3]
  Ratio IC50: > 50
Homo sapiens [4]
  Ratio IC50: > 100
[5]
  IC50: > 100 µM
[6]
  IC50: > 50 µM
Homo sapiens [7]
  Ratio IC50: > 100

## CCC(=O)NC(c1ccco1)c1cc(Cl)c2c(c1O)NCCC2 (configuration not stated)
[1]
  IC50: 3 µM

## O=C(NC(c1ccco1)c1cc(Cl)c2cccnc2c1O)c1ccccc1 (configuration not stated)
[1]
  IC50: > 25 µM

## CC(C)(c1ccc(O)c(Br)c1)c1cc(Br)c(O)c(Br)c1
[8]
  IC50: 5 µM
[9]
  IC50: 7 µM

## CC(=O)NC(c1cccs1)c1cc(Cl)c2cccnc2c1O (configuration not stated)
[10]
  Kiuc: 0.8 µM
[2]
  IC50: > 100 µM
Homo sapiens [3]
  Ratio IC50: 25
[11]
  Kic: 0.7 µM
[6]
  IC50: > 25 µM
Homo sapiens [7]
  Ratio IC50: > 100

## CC(=O)NC(C)c1cc(Cl)c2cccnc2c1O (configuration not stated)
[1]
  IC50: > 150 µM

## CCC(=O)NC(c1cccs1)c1cc([N+](=O)[O-])c2cccnc2c1O (configuration not stated)
[12]
  Activity: inactive
[13]
  inhibition: 70%
[14]
  inhibition: 68.9%
[15]
  inhibition: Active
[6]
  IC50: > 25 µM
[16]
  IC50: 15 µM

## CC(=O)NC(c1ccco1)c1cc(Cl)c2ccc(Cl)nc2c1O (configuration not stated)
[1]
  IC50: > 75 µM

## CCC(=O)NC(c1ccco1)c1cc(Cl)c2cccnc2c1OC (configuration not stated)
[1]
  IC50: > 75 µM

## CC(Cc1ccc(O)c(O)c1)C(C)Cc1ccc(O)c(O)c1 (configuration not stated)
[12]
  Activity: Active

## CCC(=O)NC(c1ccc(Br)o1)c1cc(Cl)c2cccnc2c1O (configuration not stated)
[1]
  IC50: > 75 µM

## CCC(=O)NC(c1cccs1)c1ccc2cccnc2c1O (configuration not stated)
[2]
  IC50: > 100 µM
Homo sapiens [3]
  Ratio IC50: > 15
Homo sapiens [4]
  Ratio IC50: > 29
[5]
  IC50: > 100 µM
[6]
  IC50: > 50 µM
Homo sapiens [7]
  Ratio IC50: > 29

## Oc1c(Br)c(Br)c(Br)c(Br)c1Oc1ccc(Br)cc1Br
[8]
  IC50: 1.8 µM
[9]
  IC50: 0.7 µM

## CC(=O)NC(c1ccco1)c1cc(Cl)c2ccc(N(C)C)nc2c1O (configuration not stated)
[1]
  IC50: > 75 µM

## CC(=O)NC(c1ccco1)c1cc(Cl)c2ccc(N3CCCCC3)nc2c1O (configuration not stated)
[1]
  IC50: > 75 µM

## Oc1c(Cl)cc(Cl)c2cccnc12 [CHLOROXINE]
[2]
  IC50: 3.6 µM
[5]
  IC50: 28 µM
[6]
  IC50: 2.4 µM
[1]
  IC50: 1.9 µM

## CC(=O)NCc1cc(Cl)c2cccnc2c1O
[1]
  IC50: > 150 µM

## CCC(=O)NC(C)c1cc(Cl)c2cccnc2c1O (configuration not stated)
[1]
  IC50: > 50 µM

## CC(=O)NC(c1ccco1)c1cc(Cl)c2ccccc2c1O (configuration not stated)
[1]
  IC50: > 75 µM

## CCC(=O)NC(c1ccc(F)cc1)c1cc(Cl)c2cccnc2c1O (configuration not stated)
[1]
  IC50: > 50 µM
